Target: T1, Bcl-2 protein (Recombinant Human Bcl-2 Protein) (Homo sapiens, UniProt P10415)
T1 construct: purchased Novus NBP2-34889
Assay: Binding evaluation of mixture library compounds to Bcl-2 using AS-MS (affinity selection mass spectrometry)
Conditions: ASMS Ratio(%)=(A−C)/B×100; for ASMS ratio (%) n = 1: replicate n = 1; for ASMS ratio (%) n = 2: replicate n = 2
Experimental: For one well of MICROPLATE, 96-well, PP, V-BOTTOM (Greiner bio-one, 651201), DMSO solutions of 12 mixtures (prepared to approximately 0.58 mM based on calculations from the average molecular weight of each mixture), in each of which 100 compounds are mixed, were each dispensed, and dispensed into a total of 12 wells, where the 12 mixtures are mixAI-B4J-01, mixAI-B1M-01, mixAI-B1K-01, mixAI-B10-01, mixAI-B1A-01, mixAI-B3A-01, mixAI-B21-01, mixAI-B2L-01, mixAI-B2N-01, mixAI-B2A-01, mixAI-B2Q-01, and mixAI-B2R-01 listed in [Table AI-03-B4J-01], [Table AI-03-B1M-01], [Table AI-03-B1K-01], [Table AI-03-B10-01], [Table AI-03-B1A-01], [Table AI-03-B3A-01], [Table AI-03-B2I-01], [Table AI-03-B2L-01], [Table AI-03-B2N-01], [Table AI-03-B2A-01], [Table AI-03-B2Q-01], and [AI-03-B2R-01] shown in Example 6. Using the LABCYTE ECHO® 555 Acoustic Dispensing System (BECKMAN COULTER), 70 nL was collected from each of the 12 wells into one arbitrary well to prepare a sample solution with 1200 compounds in the mixed state (the presence of 1152 compounds had already been identified when prepared in Example 6-5-3). (In the present specification, the mixture collected in this one well is referred to as one library.) Furthermore, a Bcl-2 protein (Novus, NBP2-34889, Recombinant Human Bcl-2 Protein, Lot E60145051) (19.2 μL) that had been prepared in advance to be 20.9 μM using a Tris-HCl buffer (25 mM Tris-HCl pH 7.4, 150 mM NaCl, 0.025% Tween-20, 1 mM DTT) was added to the well in which 1200 compounds (the presence of 1152 compounds had already been identified when prepared in Example 6-5-3) were dispensed (final compound concentration […], final Bcl-2 concentration 20 μM), and the mixture was incubated in the dark at 23° C. for 1 hour. Next, using the 96-well MacroSpin column, P-2 Material (Harvard, 74-5655) that had been swollen, conditioning of the 96-well MacroSpin column was performed three times by centrifugation with 200 μL of an assay buffer (25 mM Tris-HCl pH 7.4, 150 mM NaCl, 0.025% Tween-20, 1 mM DTT), 2000 XG, 4° C., 2 min. Subsequently, 20 μL of the sample after incubation was added to the 96-well MacroSpin column, P-2 Material, that had been conditioned, and SEC treatment was performed by centrifugation at 2000×G for 2 minutes. To the liquid passed from the SEC, 32 μL of a 1:1 mixed solution of acetonitrile and methanol (LC/MS grade, Fujifilm Wako Pure Chemical Corporation) was added, the mixture was centrifuged at 1800×G, 4° C., 5 min, and the supernatant was used as analysis sample ASMS (A), while a sample that had been prepared by the same operations at 1200 compounds/well and to which only the Tris-HCl buffer had been added without the Bcl-2 protein was incubated under the same conditions, no 96-well MacroSpin column treatment was performed, the same organic solvent was added, and the supernatant solution obtained by centrifugation was used as STD (B). Next, a sample that had been prepared by the same operations at 1200 compounds/well and to which only the Tris-HCl buffer had been added without the Bcl-2 protein was incubated under the same conditions, the same 96-well MacroSpin column treatment was performed, the same organic solvent was added, and the supernatant solution obtained by centrifugation was used as BK (C), and measured by reversed phase LC/MS.
Then, analysis of the 1200 compounds was carried out for samples A, B, and C with TraceFinder 5.1 (Thermo Fisher Scientific) and CHANCE Software (in-house), and the ASMS Ratio (%) was calculated according to the following calculation formula.
Calculation formula: ASMS Ratio(%)=(A−C)/B×100

[1] = AS-MS, mixture of 1200 compounds, Bcl-2
[2] = AS-MS on the mixture of 1200 library compounds

T1 sequence (P10415 whole entry): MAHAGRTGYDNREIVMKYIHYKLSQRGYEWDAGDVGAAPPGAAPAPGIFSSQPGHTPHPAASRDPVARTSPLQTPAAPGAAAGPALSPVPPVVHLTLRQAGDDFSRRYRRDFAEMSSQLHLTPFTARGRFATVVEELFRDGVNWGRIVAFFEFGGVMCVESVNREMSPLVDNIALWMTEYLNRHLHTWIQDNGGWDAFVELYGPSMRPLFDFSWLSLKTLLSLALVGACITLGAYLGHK

ASMS ratio (%) n = 1 [1]	ASMS ratio (%) n = 2 [1]	Compound	ASMS ratio (%) n = 1 [2]	ASMS ratio (%) n = 2 [2]
		6-[4-[[4-(5-Ethoxypyridin-3-yl)-3-fluorophenyl]methyl]piperazin-1-yl]-N-propylpyridazine-3-carboxamide [B1M086-01]	0.0%	0.0%
17.6%	−0.7%	CCOc1cccc(-c2csc(C(=O)N3CCN(c4ccc(C(=O)NCC56CC7CC(CC(C7)C5)C6)nn4)CC3)c2)c1 [B1A001-01, N-(1-Adamantylmethyl)-6-[4-[4-(3-ethoxyphenyl)thiophene-2-carbonyl]piperazin-1-yl]pyridazine-3-carboxamide]		
0.0%	4.9%	CCOc1cncc(-c2csc(C(=O)N3CCN(c4ccc(C(=O)NCC56CC7CC(CC(C7)C5)C6)nn4)CC3)c2)c1 [B1A002-01]		
7.5%	5.8%	CCOc1cccc(-c2ccc(C(=O)N3CCN(c4ccc(C(=O)NCC56CC7CC(CC(C7)C5)C6)nn4)CC3)cc2C)c1 [B1A003-01, N-(1-Adamantylmethyl)-6-[4-[4-(3-ethoxyphenyl)-3-methylbenzoyl]piperazin-1-yl]pyridazine-3-carboxamide]		
−6.2%	2.6%	CCOc1cncc(-c2ccc(C(=O)N3CCN(c4ccc(C(=O)NCC56CC7CC(CC(C7)C5)C6)nn4)CC3)cc2C)c1 [B1A004-01, N-(1-Adamantylmethyl)-6-[4-[4-(5-ethoxypyridin-3-yl)-3-methylbenzoyl]piperazin-1-yl]pyridazine-3-carboxamide]		
7.0%	−10.7%	CCOc1cccc(-c2ccc(C(=O)N3CCN(c4ccc(C(=O)NCC56CC7CC(CC(C7)C5)C6)nn4)CC3)cc2F)c1 [B1A005-01, N-(1-Adamantylmethyl)-6-[4-[4-(3-ethoxyphenyl)-3-fluorobenzoyl]piperazin-1-yl]pyridazine-3-carboxamide]		
2.4%	9.1%	CCOc1cncc(-c2ccc(C(=O)N3CCN(c4ccc(C(=O)NCC56CC7CC(CC(C7)C5)C6)nn4)CC3)cc2F)c1 [B1A006-01, N-(1-Adamantylmethyl)-6-[4-[4-(5-ethoxypyridin-3-yl)-3-fluorobenzoyl]piperazin-1-yl]pyridazine-3-carboxamide]		
0.0%		CCOc1cccc(C#Cc2ccccc2C(=O)N2CCN(c3ccc(C(=O)NCC45CC6CC(CC(C6)C4)C5)nn3)CC2)c1 [B1A007-01, N-(1-Adamantylmethyl)-6-[4-[2-[2-(3-ethoxyphenyl)ethynyl]benzoyl]piperazin-1-yl]pyridazine-3-carboxamide]		
3.0%	0.0%	CCOc1cncc(C#Cc2ccccc2C(=O)N2CCN(c3ccc(C(=O)NCC45CC6CC(CC(C6)C4)C5)nn3)CC2)c1 [B1A008-01, N-(1-Adamantylmethyl)-6-[4-[2-[2-(5-ethoxypyridin-3-yl)ethynyl]benzoyl]piperazin-1-yl]pyridazine-3-carboxamide]		
3.0%	0.0%	CCOc1cccc(C#Cc2cncc(C(=O)N3CCN(c4ccc(C(=O)NCC56CC7CC(CC(C7)C5)C6)nn4)CC3)c2)c1 [B1A009-01, N-(1-Adamantylmethyl)-6-[4-[5-[2-(3-ethoxyphenyl)ethynyl]pyridine-3-carbonyl]piperazin-1-yl]pyridazine-3-carboxamide]		
	0.0%	CCOc1cncc(C#Cc2cncc(C(=O)N3CCN(c4ccc(C(=O)NCC56CC7CC(CC(C7)C5)C6)nn4)CC3)c2)c1 [B1A010-01, N-(1-Adamantylmethyl)-6-[4-[5-[2-(5-ethoxypyridin-3-yl)ethynyl]pyridine-3-carbonyl]piperazin-1-yl]pyridazine-3-carboxamide]		
11.2%	−13.2%	CCOc1cccc(-c2ccccc2CCC(=O)N2CCN(c3ccc(C(=O)NCC45CC6CC(CC(C6)C4)C5)nn3)CC2)c1 [B1A011-01, N-(1-Adamantylmethyl)-6-[4-[3-[2-(3-ethoxyphenyl)phenyl]propanoyl]piperazin-1-yl]pyridazine-3-carboxamide]		
0.0%	0.0%	CCOc1cncc(-c2ccccc2CCC(=O)N2CCN(c3ccc(C(=O)NCC45CC6CC(CC(C6)C4)C5)nn3)CC2)c1 [B1A012-01, N-(1-Adamantylmethyl)-6-[4-[3-[2-(5-ethoxypyridin-3-yl)phenyl]propanoyl]piperazin-1-yl]pyridazine-3-carboxamide]		
−1.7%	2.4%	CCOc1cccc(-c2ccc(C(=O)N3CCN(c4ccc(C(=O)NCC56CC7CC(CC(C7)C5)C6)nn4)CC3)c3ccccc23)c1 [B1A013-01, N-(1-Adamantylmethyl)-6-[4-[4-(3-ethoxyphenyl)naphthalene-1-carbonyl]piperazin-1-yl]pyridazine-3-carboxamide]		
8.1%	0.0%	CCOc1cncc(-c2ccc(C(=O)N3CCN(c4ccc(C(=O)NCC56CC7CC(CC(C7)C5)C6)nn4)CC3)c3ccccc23)c1 [B1A014-01, N-(1-Adamantylmethyl)-6-[4-[4-(5-ethoxypyridin-3-yl)naphthalene-1-carbonyl]piperazin-1-yl]pyridazine-3-carboxamide]		
−0.9%	−20.6%	CCOc1cccc(-c2cc(C(=O)N3CCN(c4ccc(C(=O)NCC56CC7CC(CC(C7)C5)C6)nn4)CC3)cc(C(C)(C)C)c2)c1 [B1A015-01, N-(1-Adamantylmethyl)-6-[4-[3-tert-butyl-5-(3-ethoxyphenyl)benzoyl]piperazin-1-yl]pyridazine-3-carboxamide]		

Compound	ASMS ratio (%) n = 1 [1]	ASMS ratio (%) n = 2 [1]	ASMS ratio (%) n = 1 [2]	ASMS ratio (%) n = 2 [2]
6-[4-[[4-(3-Ethoxyphenyl)naphthalen-1-yl]methyl]piperazin-1-yl]-N-propylpyridazine-3-carboxamide [B1M045-01]	2.5%	−2.3%		
6-[4-[[4-(3-Ethoxyphenyl)thiophen-2-yl]methyl]piperazin-1-yl]-N-propylpyridazine-3-carboxamide [B1M049-01]	−0.9%	−0.4%		
6-[4-[[4-(5-Ethoxypyridin-3-yl)-2,6-dimethoxyphenyl]methyl]piperazin-1-yl]-N-propylpyridazine-3-carboxamide [B1M023-01]	1.4%	−3.0%		
6-[4-[[4-(5-Ethoxypyridin-3-yl)-3-methylphenyl]methyl]piperazin-1-yl]-N-propylpyridazine-3-carboxamide [B1M065-01]	0.2%	−6.4%		
6-[4-[[4-(5-Ethoxypyridin-3-yl)naphthalen-1-yl]methyl]piperazin-1-yl]-N-propylpyridazine-3-carboxamide [B1M047-01]	1.1%	0.3%		
6-[4-[[4-(5-Ethoxypyridin-3-yl)thiophen-2-yl]methyl]piperazin-1-yl]-N-propylpyridazine-3-carboxamide [B1M051-01]	0.7%	1.9%		
